{
  "source": "patent US20240277698A1",
  "about": "“METHODS OF USING ALDOSTERONE SYNTHASE INHIBITORS” (CINCOR PHARMA, INC., priority 2021, published 2024)",
  "key": {"[1]": {"experiment": "Renal impairment study, single 10 mg dose: pharmacokinetics", "assay_type": "in vivo, human", "conditions": "for geometric mean ratio AUC(0-inf) versus control group / geometric mean ratio AUC(0-last) versus control group / geometric mean ratio Cmax versus control group: single 10 mg dose", "description": "Of particular relevance to study subjects who will be enrolled in this trial is the investigation of the pharmacokinetics of (R)-compound 1 in individuals with varying degrees of renal impairment. The PK profiles of (R)-compound 1 and its primary metabolite following administration of a single 10 mg dose in individuals with renal impairment were qualitatively and quantitatively similar to those measured in healthy subjects. […] There were no noteworthy increases in systemic exposure or decrease in clearance in individuals with impaired renal function. Dose adjustment of (R)-compound 1 based on renal function was therefore not necessary.\nOne subject with end stage disease experienced an unrelated SAE of metabolic encephalopathy and a moderate unrelated adverse event (AE) of tremor. One control subject experienced a mild AE of diarrhea, which was considered to be related to study drug by the Investigator. […] It is not necessary to dose adjust (R)-compound 1 for patients with renal impairment.\nThere was no substantial impact of renal impairment on the PK of (R)-compound 1 based on pair-wise comparisons and no strong or nonlinear relationship between estimated GFR and PK parameters was observed. Findings for the primary metabolite of (R)-compound 1 was similar to those for parent with no clinically meaningful differences observed across groups. The percent of the dose excreted renally was approximately 12% in the control group and the moderate to severe renal impairment group. […] Based on the results of this study, dose adjustment of (R)-compound 1 in renally impaired individuals is not considered necessary."}, "[2]": {"experiment": "MAD study: predose plasma adrenocorticotropic hormone (ACTH)", "assay_type": "in vivo, human", "description": "Table 10 presents mean predose plasma ACTH concentrations over time and change and percent change from Day 1 to Day 10 predose concentrations by treatment group for the PD Population."}, "aldosterone synthase": {"target": "T1, aldosterone synthase (Homo sapiens, UniProt P19099)", "T1 construct": "synthesized in the adrenal cortex by aldosterone synthase; endogenous in cells; host or cells: adrenal cortex of healthy human subjects (in vivo, oral dosing)", "T1 sequence (P19099 25-503)": "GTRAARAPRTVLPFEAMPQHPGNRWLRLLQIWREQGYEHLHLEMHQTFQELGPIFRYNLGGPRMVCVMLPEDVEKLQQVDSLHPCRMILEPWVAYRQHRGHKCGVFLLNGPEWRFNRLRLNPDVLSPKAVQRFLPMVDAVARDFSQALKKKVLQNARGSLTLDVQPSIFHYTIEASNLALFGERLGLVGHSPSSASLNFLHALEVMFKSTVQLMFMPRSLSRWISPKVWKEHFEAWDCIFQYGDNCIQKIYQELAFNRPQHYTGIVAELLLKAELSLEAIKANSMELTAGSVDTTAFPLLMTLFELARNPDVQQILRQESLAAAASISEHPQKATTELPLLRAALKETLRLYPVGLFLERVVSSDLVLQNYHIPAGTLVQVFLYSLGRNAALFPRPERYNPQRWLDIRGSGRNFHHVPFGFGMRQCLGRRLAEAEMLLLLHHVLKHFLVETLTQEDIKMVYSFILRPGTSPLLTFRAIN", "experiment": "MAD study: urine aldosterone and tetrahydroaldosterone", "assay_type": "in vivo", "conditions": "mean", "description": "For each subject, the study consisted of: • A screening period of up to 28 days; • A 5-day inpatient run-in period during which subjects adhered to a controlled, standardized diet and underwent baseline PD assessments; • A 15-day inpatient treatment period, during which subjects received (R)-compound 1 or placebo once daily for 10 days while adhering to a controlled, standardized diet, followed by PK and PD sampling over an additional 5 days; and • A follow-up visit 3 days (1 day) after discharge from the clinical unit. • A cortisol stimulation test (Cohorts 1 and 2 only) and standing aldosterone assessment (all cohorts) were performed on Days 1 and 10. Serial blood samples for PK and PD were obtained prior to and at specified time points over 24 hours after dosing on Day 1 as well as prior to and at specified time points over 120 hours after dosing on Day 10. In addition, blood samples for PK were collected prior to dosing on Days 8 and 9. Urine for PK and PD measurements was collected over 24 hours starting just prior to dosing on Day 1 as well as over 120 hours starting just prior to dosing on Day 10.\nUrine PD measures included concentrations of • Aldosterone; • Cortisol (free and total); and • Tetrahydroaldosterone.\nFor analysis, the urine PD concentrations were converted to total analyte amounts: Total amount (unit)=concentration (unit/volume) • urine volume"}, "[3]": {"conditions": "moderate to severe renal impairment group"}},
  "data": [
    {"smiles": "CCC(=O)N[C@@H]1CCCc2c(-c3ccc4c(c3)CCC(=O)N4C)cncc21", "note": "[(R)-Compound 1, (R)—N-(4-(1-methyl-2-oxo-1,2,3,4-tetrahydroquinolin-6-yl)-5,6,7,8-tetrahydroisoquinolin-8-yl)propionamide]", "values": [
      {"measurement": "percent of the dose excreted renally", "setting": "[1]; control group", "result": "approximately 12%"},
      {"measurement": "renal excretion", "setting": "[1]; kidney failure group", "result": "negligible renal excretion"},
      {"measurement": "geometric mean ratio AUC(0-inf) versus control group", "setting": "[1]; kidney failure group", "result": 0.68},
      {"measurement": "geometric mean ratio AUC(0-last) versus control group", "setting": "[1]; kidney failure group", "result": 0.68},
      {"measurement": "geometric mean ratio Cmax versus control group", "setting": "[1]; kidney failure group", "result": 0.88},
      {"measurement": "percent of the dose excreted renally", "setting": "[1]; [3]", "result": "approximately 12%"},
      {"measurement": "geometric mean ratio AUC(0-inf) versus control group", "setting": "[1]; [3]", "result": 1.21},
      {"measurement": "geometric mean ratio AUC(0-last) versus control group", "setting": "[1]; [3]", "result": 1.17},
      {"measurement": "geometric mean ratio Cmax versus control group", "setting": "[1]; [3]", "result": 1.02},
      {"measurement": "Plasma ACTH, change from Day 1 to Day 10, predose, mean", "setting": "[2]; 0.5 mg, normal salt diet", "result": -0.15, "unit": "pmol/L"},
      {"measurement": "Plasma ACTH, percent change from Day 1 to Day 10, predose, mean", "setting": "[2]; 0.5 mg, normal salt diet", "result": "−2.01", "unit": "%"},
      {"measurement": "Plasma ACTH, change from Day 1 to Day 10, predose, mean", "setting": "[2]; 1.5 mg, normal salt diet", "result": -1.63, "unit": "pmol/L"},
      {"measurement": "Plasma ACTH, percent change from Day 1 to Day 10, predose, mean", "setting": "[2]; 1.5 mg, normal salt diet", "result": "−24.00", "unit": "%"},
      {"measurement": "Plasma ACTH, change from Day 1 to Day 10, predose, mean", "setting": "[2]; 2.5 mg, low salt diet", "result": 2.11, "unit": "pmol/L"},
      {"measurement": "Plasma ACTH, percent change from Day 1 to Day 10, predose, mean", "setting": "[2]; 2.5 mg, low salt diet", "result": 184.44, "unit": "%"},
      {"measurement": "Plasma ACTH, change from Day 1 to Day 10, predose, mean", "setting": "[2]; 2.5 mg, normal salt diet", "result": -4.04, "unit": "pmol/L"},
      {"measurement": "Plasma ACTH, percent change from Day 1 to Day 10, predose, mean", "setting": "[2]; 2.5 mg, normal salt diet", "result": "−35.69", "unit": "%"},
      {"measurement": "Plasma ACTH, change from Day 1 to Day 10, predose, mean", "setting": "[2]; 5.0 mg, low salt diet", "result": 1.57, "unit": "pmol/L"},
      {"measurement": "Plasma ACTH, percent change from Day 1 to Day 10, predose, mean", "setting": "[2]; 5.0 mg, low salt diet", "result": 125.86, "unit": "%"},
      {"measurement": "Predose plasma ACTH, mean", "setting": "[2]; Day 1, predose, 0.5 mg, normal salt diet", "result": 3.91, "unit": "pmol/L"},
      {"measurement": "Predose plasma ACTH, mean", "setting": "[2]; Day 1, predose, 1.5 mg, normal salt diet", "result": 6.30, "unit": "pmol/L"},
      {"measurement": "Predose plasma ACTH, mean", "setting": "[2]; Day 1, predose, 2.5 mg, low salt diet", "result": 1.47, "unit": "pmol/L"},
      {"measurement": "Predose plasma ACTH, mean", "setting": "[2]; Day 1, predose, 2.5 mg, normal salt diet", "result": 6.40, "unit": "pmol/L"},
      {"measurement": "Predose plasma ACTH, mean", "setting": "[2]; Day 1, predose, 5.0 mg, low salt diet", "result": 1.96, "unit": "pmol/L"},
      {"measurement": "Predose plasma ACTH, mean", "setting": "[2]; Day 10, predose, 0.5 mg, normal salt diet", "result": 3.76, "unit": "pmol/L"},
      {"measurement": "Predose plasma ACTH, mean", "setting": "[2]; Day 10, predose, 1.5 mg, normal salt diet", "result": 4.67, "unit": "pmol/L"},
      {"measurement": "Predose plasma ACTH, mean", "setting": "[2]; Day 10, predose, 2.5 mg, low salt diet", "result": 3.59, "unit": "pmol/L"},
      {"measurement": "Predose plasma ACTH, mean", "setting": "[2]; Day 10, predose, 2.5 mg, normal salt diet", "result": 2.80, "unit": "pmol/L"},
      {"measurement": "Predose plasma ACTH, mean", "setting": "[2]; Day 10, predose, 5.0 mg, low salt diet", "result": 3.52, "unit": "pmol/L"},
      {"measurement": "ACTH increase compared to placebo", "setting": "[2]; low salt diet conditions (Cohorts 1 and 2)", "result": "somewhat more pronounced"},
      {"measurement": "ACTH", "setting": "[2]; normal salt diet conditions", "result": "apparent dose-dependent decreases"},
      {"measurement": "Urine aldosterone (ng), Percent change from baseline (Day −1) to Day 1 0-24 hr", "setting": "aldosterone synthase; 0.5 mg QD, normal salt diet", "result": "−23.7290", "unit": "%"},
      {"measurement": "Urine aldosterone (ng), Percent change from baseline (Day −1) to Day 10 0-24 hr", "setting": "aldosterone synthase; 0.5 mg QD, normal salt diet", "result": 4.2728, "unit": "%"},
      {"measurement": "Urine tetrahydroaldosterone (ng), Percent change from baseline (Day −1) to Day 1 0-24 hr", "setting": "aldosterone synthase; 0.5 mg QD, normal salt diet", "result": "−12.0171", "unit": "%"},
      {"measurement": "Urine tetrahydroaldosterone (ng), Percent change from baseline (Day −1) to Day 10 0-24 hr", "setting": "aldosterone synthase; 0.5 mg QD, normal salt diet", "result": 11.0511, "unit": "%"},
      {"measurement": "Urine aldosterone (ng), Percent change from baseline (Day −1) to Day 1 0-24 hr", "setting": "aldosterone synthase; 1.5 mg QD, normal salt diet", "result": "−67.6229", "unit": "%"},
      {"measurement": "Urine aldosterone (ng), Percent change from baseline (Day −1) to Day 10 0-24 hr", "setting": "aldosterone synthase; 1.5 mg QD, normal salt diet", "result": "−65.6831", "unit": "%"},
      {"measurement": "Urine tetrahydroaldosterone (ng), Percent change from baseline (Day −1) to Day 1 0-24 hr", "setting": "aldosterone synthase; 1.5 mg QD, normal salt diet", "result": "−47.0556", "unit": "%"},
      {"measurement": "Urine tetrahydroaldosterone (ng), Percent change from baseline (Day −1) to Day 10 0-24 hr", "setting": "aldosterone synthase; 1.5 mg QD, normal salt diet", "result": "−60.9034", "unit": "%"},
      {"measurement": "Urine aldosterone (ng), Percent change from baseline (Day −1) to Day 1 0-24 hr", "setting": "aldosterone synthase; 2.5 mg QD, low salt diet", "result": "−61.1877", "unit": "%"},
      {"measurement": "Urine aldosterone (ng), Percent change from baseline (Day −1) to Day 10 0-24 hr", "setting": "aldosterone synthase; 2.5 mg QD, low salt diet", "result": "−19.3985", "unit": "%"},
      {"measurement": "Urine tetrahydroaldosterone (ng), Percent change from baseline (Day −1) to Day 1 0-24 hr", "setting": "aldosterone synthase; 2.5 mg QD, low salt diet", "result": "−26.0540", "unit": "%"},
      {"measurement": "Urine tetrahydroaldosterone (ng), Percent change from baseline (Day −1) to Day 10 0-24 hr", "setting": "aldosterone synthase; 2.5 mg QD, low salt diet", "result": "−6.2967", "unit": "%"},
      {"measurement": "Urine aldosterone (ng), Percent change from baseline (Day −1) to Day 1 0-24 hr", "setting": "aldosterone synthase; 2.5 mg QD, normal salt diet", "result": "−71.7141", "unit": "%"},
      {"measurement": "Urine aldosterone (ng), Percent change from baseline (Day −1) to Day 10 0-24 hr", "setting": "aldosterone synthase; 2.5 mg QD, normal salt diet", "result": "−50.7592", "unit": "%"},
      {"measurement": "Urine tetrahydroaldosterone (ng), Percent change from baseline (Day −1) to Day 1 0-24 hr", "setting": "aldosterone synthase; 2.5 mg QD, normal salt diet", "result": "−59.6517", "unit": "%"},
      {"measurement": "Urine tetrahydroaldosterone (ng), Percent change from baseline (Day −1) to Day 10 0-24 hr", "setting": "aldosterone synthase; 2.5 mg QD, normal salt diet", "result": "−55.1771", "unit": "%"},
      {"measurement": "Urine aldosterone (ng), Percent change from baseline (Day −1) to Day 1 0-24 hr", "setting": "aldosterone synthase; 5.0 mg QD, low salt diet", "result": "−83.5768", "unit": "%"},
      {"measurement": "Urine tetrahydroaldosterone (ng), Percent change from baseline (Day −1) to Day 1 0-24 hr", "setting": "aldosterone synthase; 5.0 mg QD, low salt diet", "result": "−67.5905", "unit": "%"},
      {"measurement": "Urine tetrahydroaldosterone (ng), Percent change from baseline (Day −1) to Day 10 0-24 hr", "setting": "aldosterone synthase; 5.0 mg QD, low salt diet", "result": "−64.5164", "unit": "%"}
    ]}
  ]
}
